Results from patent US9061060B2, “Deuterated benzylbenzene derivatives and methods of use” (Theracos Inc., priority 2008, dated 2015).

Assays:
[1] = target: T1, CYP3A4 (Homo sapiens, UniProt P08684); test: P450-Glo CYP screening kit, CYP3A4 inhibition; type: in vitro ADME; conditions: luminescence, read-out: IC50 3A4
T1 construct: purchased Promega
Excerpt: (§1) P450-Glo™ CYP Screening Kits for CYP1A2, CYP3A4 and CYP2C19 were purchased from Promega. […] Luminescence was quantified using a Victor 3 spectrophotometer (PerkinElmer).

[2] = tested on: beagle dogs; test: Urinary glucose excretion in beagle dogs; type: in vivo; conditions: 0.03 mg/kg oral, glucose 2 g/kg 1 h post dose; for Urinary Glucose Excretion in Dogs, 0-8 h (mean ± SD): 0-8 h (Table 4); for Urinary Glucose Excretion in Dogs, 0-24 h (mean ± SD): 0-24 h (Table 4)
Experimental: Each test compound was dissolved in 10% PEG400 and administered orally to overnight-fasted beagle dogs by gavage at the dose level of 0.03 mg/kg. Control dogs were given 10% PEG400 only. One hour post dosing, glucose solution (2 g/kg, 5 mL/kg) was administered by oral gavage. Urine was collected within metabolic cages from 0 to 8 hours, and 8 to 24 hours post-dosing for urine volume and glucose measurement. Food was removed 16 hours before dosing and then provided 3 hours after dosing. Water was supplied ad libitum. The concentration of urinary glucose was determined at 8 hours and 24 hours post-dose using a biochemistry analyzer.

[3] = Metabolism in SD rats: distribution of metabolites in urine; type: in vivo; conditions: male SD rats, 50 mg/kg oral, five consecutive days, HPLC
Experimental: Each test compound was dissolved in 30% PEG400 and administered orally to male SD rats by gavages at the dose level of 50 mg/kg (when using co-crystals, the weight calculation was based on free drug) for five consecutive days. Control rats were given 30% PEG400 only. All rats were housed in metabolic cages individually. Food and water were supplied ad libitum. Clinical observations (with attention to diarrhea symptoms) were performed twice daily. Food and water consumption were determined daily. Urine was collected pre-determined intervals: pre-dose, 0-4 hours, 4-8 hours, and 8-24 hours post-dose. Metabolites were analyzed and identified by LC/MS. The structures of the metabolites were confirmed by re-synthesis or isolation from the urine by preparative HPLC and NMR analysis. On day 6, all animals were sacrificed and gross necropsy was performed. The urine from two rats for each test compound was collected and pooled. The samples were diluted (1 mL urine in 4 mL of methanol) and analyzed by LC-MS: Waters 2695 Separations Module equipped with a Waters 2996 Photodiode Array Detector and a Waters Micromass ZQ Detector; Waters XTerra C18 3.5 μm, 20 mm×2.1 mm column, 1.0 mL/min, detection at 190-400 nm; 1.7 min gradient 10-50% A, followed by 1.8 min gradient 50-95% A, hold 1 min at 95% A; solvent A: 100% acetonitrile+0.045% formic acid; solvent B: Milli-Q water+0.1% formic acid. The urine samples were analyzed from 0-4 hours, 4-8 hours, 8-24 hours and 0-24 hours after administration. The ratio of metabolites was highly consistent within each time for each rat. The metabolites were identified by mass then re-synthesized to confirm their identity and the relative distribution was assayed using HPLC. […] See also FIGS. 1, 2A-2C, 3A-3D, and 4A-4C.

[4] = target: T2, CYP2C19 (Homo sapiens, UniProt P33261); test: P450-Glo CYP screening kit, CYP2C19 inhibition; type: in vitro ADME; conditions: luminescence, read-out: IC50 2C19
T2 construct: purchased Promega
T2 sequence (P33261 whole entry): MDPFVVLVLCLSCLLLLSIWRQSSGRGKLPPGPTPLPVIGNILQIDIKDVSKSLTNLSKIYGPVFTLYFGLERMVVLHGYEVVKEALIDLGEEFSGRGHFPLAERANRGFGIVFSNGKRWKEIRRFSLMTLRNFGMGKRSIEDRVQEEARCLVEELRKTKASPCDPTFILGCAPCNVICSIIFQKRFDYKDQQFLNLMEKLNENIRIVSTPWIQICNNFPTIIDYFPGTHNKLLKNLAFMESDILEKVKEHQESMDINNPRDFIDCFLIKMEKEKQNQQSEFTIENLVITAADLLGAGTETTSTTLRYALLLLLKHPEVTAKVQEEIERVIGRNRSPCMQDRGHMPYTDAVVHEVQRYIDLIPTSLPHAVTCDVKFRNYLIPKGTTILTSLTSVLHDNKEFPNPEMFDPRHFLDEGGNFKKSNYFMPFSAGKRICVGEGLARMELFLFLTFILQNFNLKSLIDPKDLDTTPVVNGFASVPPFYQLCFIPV
Excerpt: as §1

[5] = Pharmacokinetic parameters in SD rats; type: in vivo, Sprague-Dawley rats; conditions: single oral 3 mg/kg in 30% PEG400, plasma; for CL/F / AUC(0-t): Sprague-Dawley, rat; for AUC(0-t): read-out: AUC0-t (mean ± SD)
Experimental: The pharmacokinetic study of each test compound was conducted in 4 Sprague-Dawley rats following a single oral administration of 3 mg/kg of the compound. The dose was prepared by dissolving test article in appropriate volume of 30% PEG400. The plasma samples were collected from the orbital plexus at 0.083, 0.25, 0.50, 1.0, 2.0, 4.0, 6.0, 8.0, 12 and 24 hours post dose, and the plasma concentrations were determined by a developed LC-MS/MS method.

[6] = target: T3, CYP1A2 (Homo sapiens, UniProt P05177); test: P450-Glo CYP screening kit, CYP1A2 inhibition; type: in vitro ADME; conditions: luminescence, read-out: IC50 1A2
T3 construct: purchased Promega
T3 sequence (P05177 1-516): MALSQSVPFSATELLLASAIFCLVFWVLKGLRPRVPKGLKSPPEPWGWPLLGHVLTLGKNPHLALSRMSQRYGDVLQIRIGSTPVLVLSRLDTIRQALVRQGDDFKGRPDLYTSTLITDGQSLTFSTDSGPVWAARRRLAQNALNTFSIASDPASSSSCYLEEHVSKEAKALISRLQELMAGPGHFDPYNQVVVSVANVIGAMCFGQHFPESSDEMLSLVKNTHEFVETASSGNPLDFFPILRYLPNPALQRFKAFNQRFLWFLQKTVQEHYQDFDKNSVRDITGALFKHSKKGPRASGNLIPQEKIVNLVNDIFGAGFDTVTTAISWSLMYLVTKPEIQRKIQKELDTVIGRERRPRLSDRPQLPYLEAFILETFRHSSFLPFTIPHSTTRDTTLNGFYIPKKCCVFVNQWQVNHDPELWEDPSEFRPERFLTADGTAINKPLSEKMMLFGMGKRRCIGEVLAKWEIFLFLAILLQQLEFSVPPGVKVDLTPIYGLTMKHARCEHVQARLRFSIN
Excerpt: as §1

T1 sequence (P08684 whole entry): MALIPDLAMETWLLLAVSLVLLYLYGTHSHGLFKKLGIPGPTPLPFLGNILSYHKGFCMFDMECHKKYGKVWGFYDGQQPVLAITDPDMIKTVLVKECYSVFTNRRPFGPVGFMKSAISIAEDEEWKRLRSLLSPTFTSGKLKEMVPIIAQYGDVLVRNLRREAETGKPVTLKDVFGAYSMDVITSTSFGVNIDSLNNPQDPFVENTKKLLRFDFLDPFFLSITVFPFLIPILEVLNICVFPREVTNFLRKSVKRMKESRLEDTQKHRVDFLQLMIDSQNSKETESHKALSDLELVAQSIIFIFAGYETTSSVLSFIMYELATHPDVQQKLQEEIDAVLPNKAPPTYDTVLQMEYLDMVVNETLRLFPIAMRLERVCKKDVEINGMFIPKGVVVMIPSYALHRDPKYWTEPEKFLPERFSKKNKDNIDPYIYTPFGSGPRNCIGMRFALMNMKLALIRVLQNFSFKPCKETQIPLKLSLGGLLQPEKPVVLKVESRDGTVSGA

Row | Structure (SMILES) | IC50 [1] | Urinary Glucose Excretion in Dogs, 0-8 h (mean ± SD) [2] | Urinary Glucose Excretion in Dogs, 0-24 h (mean ± SD) [2] | Distribution of Metabolites in Urine (% of total), Peak 1 (Parent) [3] | IC50 [4] | CL/F [5] | AUC(0-t) [5] | Cmax (mean ± SD) [5] | t1/2 (mean ± SD) [5] | tmax (mean ± SD) [5] | IC50 [6] | Urinary Glucose Excretion in Dogs, 8-24 h (mean ± SD) ([2]; 8-24 h (Table 4))
1 | [2H]C([2H])([2H])C([2H])([2H])Oc1ccc(Cc2cc([C@@H]3O[C@H](CO)[C@@H](O)[C@H](O)[C@H]3O)ccc2Cl)cc1 [24c, (2S,3R,4R,5S,6R)-2-(4-chloro-3-(4-(ethoxy-d5)benzyl)phenyl)-6-(hydroxymethyl)tetrahydro-2H-pyran-3,4,5-triol] | 500 to 1000 µM | 3472 ± 622 mg | 11964 ± 2190 mg | 45% | 168 µM | 2.22 mL/min/kg | 21200 ± 1880 ng·h/mL | 2285 ± 697 ng/mL | 6.05 ± 0.85 h | 1.38 ± 0.75 h | 500 to 1000 µM | –
2 | CCOc1ccc(Cc2cc([C@@H]3O[C@H](CO)[C@@H](O)[C@H](O)[C@H]3O)ccc2Cl)cc1 [Ref A, (2S,3R,4R,5S,6R)-2-(4-chloro-3-(4-ethoxybenzyl)phenyl)-6-(hydroxymethyl)tetrahydro-2H-pyran-3,4,5-triol, reference compound] | ~400 µM | – | – | 40% | 61.1 µM | 4.5 mL/min/kg | 11300 ± 2600 ng·h/mL | 1603 ± 425 ng/mL | 4.52 ± 0.98 h | 0.88 ± 0.75 h | 426 µM | –
3 | [2H]C([2H])(c1ccc(OCC)cc1)c1cc([C@@H]2O[C@H](CO)[C@@H](O)[C@H](O)[C@H]2O)ccc1Cl [compound 9, (2S,3R,4R,5S,6R)-2-(4-chloro-3-((4-ethoxyphenyl)methyl-d2)phenyl)-6-(hydroxymethyl)tetrahydro-2H-pyran-3,4,5-triol] | ~1000 µM | 3396 ± 442 mg | 10228 ± 895 mg | 55% | 50 to 100 µM | 3.2 mL/min/kg | 15300 ± 2380 ng·h/mL | 1830 ± 365 ng/mL | 5.14 ± 1.28 h | 1.69 ± 0.59 h | ~500 µM | 6832 ± 2555 mg
